From patent US10968178B2, “IP6K inhibitors” (TAKEDA PHARMACEUTICAL COMPANY LIMITED, priority 2017, dated 2021) come the findings set out here.

Common to all, as to type: biochemical
One assay deals with T1, human IP6K2 (Homo sapiens, UniProt Q9UHH9).
T1 construct: human IP6K2 (1-426) gene; GST; made in house; host or cells: Sf-9 insect cells
T1 sequence (Q9UHH9 1-426): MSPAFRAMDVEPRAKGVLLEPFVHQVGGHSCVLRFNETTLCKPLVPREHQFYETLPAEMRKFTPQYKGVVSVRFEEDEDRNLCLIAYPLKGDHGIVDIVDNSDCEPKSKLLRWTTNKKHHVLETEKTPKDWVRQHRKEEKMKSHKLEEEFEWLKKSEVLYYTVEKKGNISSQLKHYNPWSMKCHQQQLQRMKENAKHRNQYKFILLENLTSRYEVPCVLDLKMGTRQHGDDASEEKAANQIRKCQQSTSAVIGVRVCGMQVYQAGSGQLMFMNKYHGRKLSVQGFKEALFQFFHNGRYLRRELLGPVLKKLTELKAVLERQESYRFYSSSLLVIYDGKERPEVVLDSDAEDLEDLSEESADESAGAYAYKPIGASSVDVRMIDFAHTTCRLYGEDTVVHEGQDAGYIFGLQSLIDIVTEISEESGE
The assay can be described thus: IP6K enzyme inhibitory assay (ADP-Glo Kinase Assay), human IP6K2. The following applies: compound concentration 0.1 μM; read-out: ADP-Glo method inhibitory rate (%) human IP6K2. How it is done: (§1) IP6K Enzyme Inhibitory Assay
(§2) Human IP6K3 enzyme was prepared by transducing human IP6K3 (1-410) gene into BL21 (DE3) Escherichia coli and purifying by Ni-NTA (nickel-nitrilotriacetic acid) affinity column. […] The enzymes were used after preservation at −70° C. The IP6K enzyme inhibitory activity of the test compound was measured by the following experiment method and using ADP-Glo™ Kinase Assay (manufactured by Promega). A test compound diluted with an assay buffer (20 mM HEPES (pH 7.5), 6 mM MgCl2, 0.01% Tween-20, 1 mM DTT) was first added by 2 μL to a 384 well plate. […] The IP6K enzyme solution diluted with the assay buffer was added by 2 μL to start the enzyme reaction. Incubation was performed at room temperature for a given time (120 min for rat IP6K3 alone, 60 min for others). After incubation at room temperature, ADP-Glo solution prepared according to the protocol of Promega was added by 3 μL to the 384 well plate and reacted at room temperature for 30 min. Thereafter, Kinase-Detection solution was added by 6 μL to the 384 well plate and reacted at room temperature for 60 min. After the reaction, the luminescence intensity was measured by a plate reader Envision (manufactured by PerkinElmer).
(In general: ADP-Glo turns the ADP formed in a reaction into a luminescent signal.)

For the next assay, the target named is T2, human IP6K1 (Homo sapiens, UniProt Q92551).
T2 construct: human IP6K1 (1-441) gene; GST; made in house; host or cells: Sf-9 insect cells
Description: IP6K enzyme inhibitory assay (ADP-Glo Kinase Assay), human IP6K1. The following applies: compound concentration 0.1 μM; read-out: ADP-Glo method inhibitory rate (%) human IP6K1. The procedure: as §1, §2

The next assay concerns the target T3, human IP6K3 (Homo sapiens, UniProt Q96PC2).
T3 construct: human IP6K3 (1-410) gene; made in house; host or cells: BL21 (DE3) Escherichia coli
T3 sequence (Q96PC2 1-410): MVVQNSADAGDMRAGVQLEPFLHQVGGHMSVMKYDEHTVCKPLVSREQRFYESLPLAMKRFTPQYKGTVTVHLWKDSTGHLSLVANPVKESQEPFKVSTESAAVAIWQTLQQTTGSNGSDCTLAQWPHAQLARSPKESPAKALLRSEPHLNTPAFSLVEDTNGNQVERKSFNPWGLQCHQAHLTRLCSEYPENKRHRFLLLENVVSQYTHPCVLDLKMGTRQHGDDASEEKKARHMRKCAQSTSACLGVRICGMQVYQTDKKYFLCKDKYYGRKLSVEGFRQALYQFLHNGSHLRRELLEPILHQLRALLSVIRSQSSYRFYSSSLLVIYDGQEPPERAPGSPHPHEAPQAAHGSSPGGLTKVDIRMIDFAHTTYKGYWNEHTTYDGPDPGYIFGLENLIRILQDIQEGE
Description: IP6K enzyme inhibitory assay (ADP-Glo Kinase Assay), human IP6K3. Conditions: compound concentration 0.1 μM; read-out: ADP-Glo method inhibitory rate (%) human IP6K3. How it is done: as §1, §2

T2 sequence (Q92551 whole entry): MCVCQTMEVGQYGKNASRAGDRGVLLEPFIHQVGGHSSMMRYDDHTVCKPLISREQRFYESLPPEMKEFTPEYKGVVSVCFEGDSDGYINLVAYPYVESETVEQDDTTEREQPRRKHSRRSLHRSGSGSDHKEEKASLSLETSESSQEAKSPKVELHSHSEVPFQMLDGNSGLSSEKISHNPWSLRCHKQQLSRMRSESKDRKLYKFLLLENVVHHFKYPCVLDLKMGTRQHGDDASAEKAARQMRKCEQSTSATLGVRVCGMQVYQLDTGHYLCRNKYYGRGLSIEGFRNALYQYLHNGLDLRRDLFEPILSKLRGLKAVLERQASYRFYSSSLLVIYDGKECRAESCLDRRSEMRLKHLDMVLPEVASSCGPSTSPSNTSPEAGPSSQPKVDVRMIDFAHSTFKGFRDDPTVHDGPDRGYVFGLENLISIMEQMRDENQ

As to `O=C(O)c1ccc2c(c1)[C@]1(CC[C@@H](Oc3ccccc3Cl)CC1)C(=O)N2` [Example 12, (1r,4r)-4-(2-chlorophenoxy)-2′-oxo-1′,2′-dihydrospiro[cyclohexane-1,3′-indole]-5′-carboxylic acid], the results for the inhibition at 0.1 µM at human IP6K2, at human IP6K1 and on human IP6K3 were 97%, 95% and 101%, respectively.
The matching figures for `O=C(O)c1ccc2c(c1)[C@]1(CC[C@H](Oc3ncc(F)cc3F)CC1)C(=O)N2` [Example 13, (1s,4s)-4-((3,5-difluoropyridin-2-yl)oxy)-2′-oxo-1′,2′-dihydrospiro[cyclohexane-1,3′-indole]-5′-carboxylic acid]: 97%, 100% and 100%.
Turning to `O=C(O)c1ccc2c(c1)[C@]1(CC[C@H](Oc3ccc(Cl)cc3Cl)CC1)C(=O)N2` [Example 15, (1s,4s)-4-(2,4-dichlorophenoxy)-2′-oxo-1′,2′-dihydrospiro[cyclohexane-1,3′-indole]-5′-carboxylic acid], the inhibition at 0.1 µM on human IP6K2 was 101%; on human IP6K1, 99%; at human IP6K3 it was 91%.
The matching figures for `O=C(O)c1ccc2c(n1)[C@]1(CC[C@@H](Oc3ncc(C4CC4)cc3Cl)CC1)C(=O)N2` [Example 16, (1r,4r)-4-((3-chloro-5-cyclopropylpyridin-2-yl)oxy)-2′-oxo-1′,2′-dihydrospiro[cyclohexane-1,3′-pyrrolo[3,2-b]pyridine]-5′-carboxylic acid]: 89%, 99% and 98%.
As for `Cc1cc(Cl)cnc1O[C@H]1CC[C@@]2(CC1)C(=O)Nc1ccc(C(=O)O)nc12` [Example 17, (1r,4r)-4-((5-chloro-3-methylpyridin-2-yl)oxy)-2′-oxo-1′,2′-dihydrospiro[cyclohexane-1,3′-pyrrolo[3,2-b]pyridine]-5′-carboxylic acid], the inhibition at 0.1 µM came to 91% at human IP6K2, 92% at human IP6K1 and 93% at human IP6K3.
The matching figures for `Cc1ccc(C(F)(F)F)c(O[C@H]2CC[C@@]3(CC2)C(=O)Nc2ccc(C(=O)O)nc23)n1` [Example 18, (1r,4r)-4-((6-methyl-3-(trifluoromethyl)pyridin-2-yl)oxy)-2′-oxo-1′,2′-dihydrospiro[cyclohexane-1,3′-pyrrolo[3,2-b]pyridine]-5′-carboxylic acid]: 62%, 54% and 77%.
The matching figures for `O=C(O)c1ccc2c(c1)[C@]1(CC[C@@H](Oc3ccccn3)CC1)C(=O)N2` [Example 19, (1r,4r)-2′-oxo-4-[pyridin-2-yloxy)-1′,2′-dihydrospiro[cyclohexane-1,3′-indole]-5′-carboxylic acid]: 45%, 40% and 70%.
With `Cc1ccc(O[C@H]2CC[C@@]3(CC2)C(=O)Nc2ccc(C(=O)O)cc23)nc1` [Example 20, (1r,4r)-4-((5-methylpyridin-2-yl)oxy)-2′-oxo-1′,2′-dihydrospiro[cyclohexane-1,3′-indole]-5′-carboxylic acid], the inhibition at 0.1 µM came out at 95% at human IP6K2, 79% on human IP6K1 and 98% on human IP6K3.
As to `Cc1cccnc1O[C@H]1CC[C@@]2(CC1)C(=O)Nc1ccc(C(=O)O)cc12` [Example 21, (1r,4r)-4-((3-methylpyridin-2-yl)oxy)-2′-oxo-1′,2′-dihydrospiro[cyclohexane-1,3′-indole]-5′-carboxylic acid], the inhibition at 0.1 µM was found to be 91% at human IP6K2, 79% on human IP6K1 and 96% on human IP6K3.
Take `O=C(O)c1ccc2c(c1)[C@]1(CC[C@@H](Oc3ccc(F)cn3)CC1)C(=O)N2` [Example 22, (1r,4r)-4-((5-fluoropyridin-2-yl)oxy)-2′-oxo-1′,2′-dihydrospiro[cyclohexane-1,3′-indole]-5′-carboxylic acid]: the values for the inhibition at 0.1 µM at human IP6K2, at human IP6K1 and on human IP6K3 were 72%, 72% and 90%, respectively.
Regarding `O=C(O)c1ccc2c(c1)[C@]1(CC[C@@H](Oc3cc(Cl)ccn3)CC1)C(=O)N2` [Example 23, (1r,4r)-4-((4-chloropyridin-2-yl)oxy)-2′-oxo-1′,2′-dihydrospiro[cyclohexane-1,3′-indole]-5′-carboxylic acid], the inhibition at 0.1 µM on human IP6K2 was 79%; at human IP6K1, 72%; on human IP6K3, 92%.
Consider `O=C(O)c1ccc2c(c1)[C@]1(CC[C@@H](Oc3ncccc3Cl)CC1)C(=O)N2` [Example 24, (1r,4r)-4-((3-chloropyridin-2-yl)oxy)-2′-oxo-1′,2′-dihydrospiro[cyclohexane-1,3′-indole]-5′-carboxylic acid], for which the inhibition at 0.1 µM on human IP6K2 was 92%; on human IP6K1, 86%; on human IP6K3, 92%.
Turning to `O=C(O)c1ccc2c(c1)[C@]1(CC[C@@H](Oc3ccc(C(F)(F)F)cn3)CC1)C(=O)N2` [Example 25, (1r,4r)-2′-oxo-4-((5-(trifluoromethyl)pyridin-2-yl)oxy)-1′,2′-dihydrospiro[cyclohexane-1,3′-indole]-5′-carboxylic acid], the inhibition at 0.1 µM on human IP6K2 was 97%; on human IP6K1, 95%; on human IP6K3, 98%.
The matching figures for `Cc1ccc(C(F)(F)F)c(O[C@H]2CC[C@@]3(CC2)C(=O)Nc2ccc(C(=O)O)cc23)n1` [Example 26]: 97%, 98% and 92%.
As to `O=C(O)c1ccc2c(c1)[C@]1(CC[C@@H](Oc3ncc(C(F)(F)F)cc3F)CC1)C(=O)N2` [Example 27, (1r,4r)-4-((3-fluoro-5-(trifluoromethyl)pyridin-2-yl)oxy)-2′-oxo-1′,2′-dihydrospiro[cyclohexane-1,3′-indole]-5′-carboxylic acid], the inhibition at 0.1 µM at human IP6K2 stood at 93%; at human IP6K1, 97%; on human IP6K3 it was 96%.
Take `O=C(O)c1ccc2c(c1)[C@]1(CC[C@@H](Oc3ncc(Cl)cc3C(F)(F)F)CC1)C(=O)N2` [Example 28, (1r,4r)-4-((5-chloro-3-(trifluoromethyl)pyridin-2-yl)oxy)-2′-oxo-1′,2′-dihydrospiro[cyclohexane-1,3′-indole]-5′-carboxylic acid]: the inhibition at 0.1 µM at human IP6K2 was found to be 98%; on human IP6K1, 95%; on human IP6K3 it was 96%.
`O=C(O)c1ccc2c(c1)[C@]1(CC[C@@H](Oc3ncc(C(F)(F)F)cc3Cl)CC1)C(=O)N2` [Example 29, (1r,4r)-4-((3-chloro-5-(trifluoromethyl)pyridin-2-yl)oxy)-2′-oxo-1′,2′-dihydrospiro[cyclohexane-1,3′-indole]-5′-carboxylic acid]: the inhibition at 0.1 µM on human IP6K2 stood at 96%; at human IP6K1 it was 99%; at human IP6K3 it was 99%.
Regarding `O=C(O)c1ccc2c(c1)[C@]1(CC[C@@H](Oc3cc(OCc4ccccc4)ccn3)CC1)C(=O)N2` [Example 30, (1r,4r)-4-((4-(benzyloxy)pyridin-2-yl)oxy)-2′-oxo-1′,2′-dihydrospiro[cyclohexane-1,3′-indole]-5′-carboxylic acid], the inhibition at 0.1 µM at human IP6K2 is 84%; on human IP6K1, 81%; on human IP6K3, 97%.
